According to PubChem BioAssay (NCI):
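Protocol summary: plate cells (96-well), add compound at 5 concentrations, incubate 48 h, interpolate endpoints linearly. TGI: total growth inhibition.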

How the values were obtained:
Assay in all cases: inhibition of tumour cell growth, NCI panel, 48 h
786-0 renal = test system: 786-0 renal
A498 renal = test system: A498 renal
A549 NSCLC = test system: A549 NSCLC
ACHN renal = test system: ACHN renal
BT-549 breast = test system: BT-549 breast
CAKI-1 renal = test system: CAKI-1 renal
CCRF-CEM leukemia = test system: CCRF-CEM leukemia
COLO 205 colon = test system: COLO 205 colon
DU-145 prostate = test system: DU-145 prostate
EKVX NSCLC = test system: EKVX NSCLC
HCT-116 colon = test system: HCT-116 colon
HCT-15 colon = test system: HCT-15 colon
HL-60(TB) leukemia = test system: HL-60(TB) leukemia
HOP-62 NSCLC = test system: HOP-62 NSCLC
HOP-92 NSCLC = test system: HOP-92 NSCLC
HS 578T breast = test system: HS 578T breast
HT29 colon = test system: HT29 colon
IGROV1 ovarian = test system: IGROV1 ovarian
K-562 leukemia = test system: K-562 leukemia
KM12 colon = test system: KM12 colon
LOX IMVI melanoma = test system: LOX IMVI melanoma
M14 melanoma = test system: M14 melanoma
MALME-3M melanoma = test system: MALME-3M melanoma
MCF7 breast = test system: MCF7 breast
MDA-MB-231 breast = test system: MDA-MB-231 breast
MDA-MB-435 = test system: MDA-MB-435
MDA-N = test system: MDA-N
MOLT-4 leukemia = test system: MOLT-4 leukemia
NCI-H226 lung = test system: NCI-H226 lung
NCI-H23 lung = test system: NCI-H23 lung
NCI-H460 lung = test system: NCI-H460 lung
NCI-H522 lung = test system: NCI-H522 lung
NCI/ADR-RES ovarian = test system: NCI/ADR-RES ovarian
OVCAR-3 ovarian = test system: OVCAR-3 ovarian
OVCAR-4 ovarian = test system: OVCAR-4 ovarian
OVCAR-5 ovarian = test system: OVCAR-5 ovarian
OVCAR-8 ovarian = test system: OVCAR-8 ovarian
PC-3 prostate = test system: PC-3 prostate
RPMI-8226 leukemia = test system: RPMI-8226 leukemia
SF-268 CNS = test system: SF-268 CNS
SF-295 CNS = test system: SF-295 CNS
SF-539 CNS = test system: SF-539 CNS
SK-MEL-2 melanoma = test system: SK-MEL-2 melanoma
SK-MEL-5 melanoma = test system: SK-MEL-5 melanoma
SK-OV-3 ovarian = test system: SK-OV-3 ovarian
SN12C renal = test system: SN12C renal
SNB-19 CNS = test system: SNB-19 CNS
SNB-75 CNS = test system: SNB-75 CNS
SR leukemia = test system: SR leukemia
SW-620 colon = test system: SW-620 colon
T-47D breast = test system: T-47D breast
TK-10 renal = test system: TK-10 renal
U251 CNS = test system: U251 CNS
UACC-257 melanoma = test system: UACC-257 melanoma
UACC-62 melanoma = test system: UACC-62 melanoma
UO-31 renal = test system: UO-31 renal

SMILES: O=C1c2ccccc2-c2[nH]c3cn[nH]c(=O)c3c21
- TGI (786-0 renal): > 100 µM
- TGI (A498 renal): > 100 µM
- TGI (A549 NSCLC): > 100 µM
- TGI (ACHN renal): > 100 µM
- TGI (BT-549 breast): > 100 µM
- TGI (CAKI-1 renal): > 100 µM
- TGI (CCRF-CEM leukemia): > 100 µM
- TGI (COLO 205 colon): > 100 µM
- TGI (DU-145 prostate): > 100 µM
- TGI (EKVX NSCLC): > 100 µM
- TGI (HCT-116 colon): > 100 µM
- TGI (HCT-15 colon): > 100 µM
- TGI (HL-60(TB) leukemia): > 100 µM
- TGI (HOP-62 NSCLC): > 100 µM
- TGI (HOP-92 NSCLC): > 100 µM
- TGI (HS 578T breast): > 100 µM
- TGI (HT29 colon): > 100 µM
- TGI (IGROV1 ovarian): > 100 µM
- TGI (K-562 leukemia): > 100 µM
- TGI (KM12 colon): > 100 µM
- TGI (LOX IMVI melanoma): > 100 µM
- TGI (M14 melanoma): > 100 µM
- TGI (MALME-3M melanoma): > 100 µM
- TGI (MCF7 breast): > 100 µM
- TGI (MDA-MB-231 breast): > 100 µM
- TGI (MDA-MB-435): > 100 µM
- TGI (MDA-N): > 100 µM
- TGI (MOLT-4 leukemia): > 100 µM
- TGI (NCI-H226 lung): > 100 µM
- TGI (NCI-H23 lung): > 100 µM
- TGI (NCI-H460 lung): > 100 µM
- TGI (NCI-H522 lung): 50.9 µM
- TGI (NCI/ADR-RES ovarian): > 100 µM
- TGI (OVCAR-3 ovarian): > 100 µM
- TGI (OVCAR-4 ovarian): > 100 µM
- TGI (OVCAR-5 ovarian): > 100 µM
- TGI (OVCAR-8 ovarian): > 100 µM
- TGI (PC-3 prostate): > 100 µM
- TGI (RPMI-8226 leukemia): > 100 µM
- TGI (SF-268 CNS): > 100 µM
- TGI (SF-295 CNS): > 100 µM
- TGI (SF-539 CNS): > 100 µM
- TGI (SK-MEL-2 melanoma): > 100 µM
- TGI (SK-MEL-5 melanoma): > 100 µM
- TGI (SK-OV-3 ovarian): > 100 µM
- TGI (SN12C renal): > 100 µM
- TGI (SNB-19 CNS): > 100 µM
- TGI (SNB-75 CNS): > 100 µM
- TGI (SR leukemia): > 100 µM
- TGI (SW-620 colon): > 100 µM
- TGI (T-47D breast): > 100 µM
- TGI (TK-10 renal): > 100 µM
- TGI (U251 CNS): > 100 µM
- TGI (UACC-257 melanoma): > 100 µM
- TGI (UACC-62 melanoma): > 100 µM
- TGI (UO-31 renal): > 100 µM

SMILES: Cc1cc2cc3c(cc2c(-c2ccc(N)cc2)n1)OCO3
- TGI (786-0 renal): 57.4 µM
- TGI (A549 NSCLC): > 100 µM
- TGI (ACHN renal): > 100 µM
- TGI (BT-549 breast): > 100 µM
- TGI (CAKI-1 renal): 75.4 µM
- TGI (CCRF-CEM leukemia): > 100 µM
- TGI (COLO 205 colon): 88.5 µM
- TGI (DU-145 prostate): > 100 µM
- TGI (EKVX NSCLC): > 100 µM
- TGI (HCT-116 colon): > 100 µM
- TGI (HCT-15 colon): > 100 µM
- TGI (HL-60(TB) leukemia): 47.3 µM
- TGI (HOP-62 NSCLC): > 100 µM
- TGI (HOP-92 NSCLC): 75.4 µM
- TGI (HS 578T breast): > 100 µM
- TGI (HT29 colon): 62.2 µM
- TGI (IGROV1 ovarian): 59.5 µM
- TGI (K-562 leukemia): 92 µM
- TGI (KM12 colon): > 100 µM
- TGI (M14 melanoma): > 100 µM
- TGI (MALME-3M melanoma): > 100 µM
- TGI (MCF7 breast): 53.6 µM
- TGI (MDA-MB-231 breast): > 100 µM
- TGI (MDA-MB-435): > 100 µM
- TGI (MDA-N): > 100 µM
- TGI (MOLT-4 leukemia): 39.6 µM
- TGI (NCI-H23 lung): > 100 µM
- TGI (NCI-H460 lung): > 100 µM
- TGI (NCI-H522 lung): > 100 µM
- TGI (NCI/ADR-RES ovarian): > 100 µM
- TGI (OVCAR-3 ovarian): 67.9 µM
- TGI (OVCAR-5 ovarian): > 100 µM
- TGI (OVCAR-8 ovarian): > 100 µM
- TGI (PC-3 prostate): > 100 µM
- TGI (RPMI-8226 leukemia): 73.7 µM
- TGI (SF-268 CNS): 79.3 µM
- TGI (SF-295 CNS): > 100 µM
- TGI (SF-539 CNS): > 100 µM
- TGI (SK-MEL-2 melanoma): > 100 µM
- TGI (SK-MEL-5 melanoma): 71.9 µM
- TGI (SK-OV-3 ovarian): > 100 µM
- TGI (SN12C renal): > 100 µM
- TGI (SNB-19 CNS): > 100 µM
- TGI (SR leukemia): 52.5 µM
- TGI (SW-620 colon): > 100 µM
- TGI (T-47D breast): > 100 µM
- TGI (TK-10 renal): > 100 µM
- TGI (U251 CNS): > 100 µM
- TGI (UACC-257 melanoma): > 100 µM
- TGI (UACC-62 melanoma): > 100 µM
- TGI (UO-31 renal): > 100 µM
